What all share (assay): Fluo-4 calcium fluorescence assay, HEK293 cells
Common to all, as to settings: agonist; co-expressed with ItypOrco; room temperature

Assay [1] relates to HabiOR4^HsCO. The format is cell-based, Hylobius abietis.
For assay [2], the system named is DponOR8^HsCO. The format is cell-based, Dendroctonus ponderosae.
The subject of assay [3] is HabiOR3. The format is cell-based, Hylobius abietis.
Assay [4] has as its system ItypOR6. The format is cell-based, Ips typographus.

This is an account of results in PMC9321952 (Molecular Ecology, 2022).

In the case of `CCCCCCO` [1-hexanol], in assay [1], the half-maximal effective concentration (EC50) is 2.85 µM.
With `OCCc1ccccc1` [2-phenylethanol], the EC50 in assay [2] worked out at 5.12 µM; in assay [3] it was 8.54 µM; in assay [4], 3.45 µM.
Consider `CCC/C=C/CO` [E2-hexenol], for which the EC50 in assay [1] stood at 3.88 µM.
On the same count and under the same terms, the value for `CCC/C=C\CO` [Z2-hexenol] was 7.34 µM.
The same measure, in the same setting: as for `CC/C=C\CCO` [Z3-hexenol], the figure is 7.99 µM.
